The text below walks through data of US20100234377A1 (priority 2007, published 2010).

Like-named read-outs stand apart in the source and are kept apart here. Some results are limits rather than exact numbers.

The target of one data set is T1, PPARγ (h) (Homo sapiens, UniProt P37231).
T1 construct: host or cells: E. coli
T1 sequence (P37231 1-505): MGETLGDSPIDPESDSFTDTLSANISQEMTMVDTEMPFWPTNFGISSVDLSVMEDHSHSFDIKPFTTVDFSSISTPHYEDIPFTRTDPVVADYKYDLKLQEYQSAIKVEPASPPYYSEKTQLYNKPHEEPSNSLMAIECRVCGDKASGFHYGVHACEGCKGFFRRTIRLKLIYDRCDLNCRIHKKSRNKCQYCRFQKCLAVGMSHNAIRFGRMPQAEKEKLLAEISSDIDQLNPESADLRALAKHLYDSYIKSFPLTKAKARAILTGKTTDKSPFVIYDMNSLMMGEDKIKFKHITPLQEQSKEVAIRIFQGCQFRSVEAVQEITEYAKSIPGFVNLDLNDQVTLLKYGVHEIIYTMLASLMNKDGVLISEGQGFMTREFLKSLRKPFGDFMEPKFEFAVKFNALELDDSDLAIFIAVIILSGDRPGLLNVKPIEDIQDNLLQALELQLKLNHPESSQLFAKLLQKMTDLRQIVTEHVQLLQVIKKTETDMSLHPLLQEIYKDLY
As to the kind of experiment: PPARγ receptor binding assay ([3H]rosiglitazone). To be noted: Table 3; [3H]rosiglitazone 10 nM, human recombinant. From the text:
Selected GST2 Inhibitors Screened Against PPARγ and KATP Channel Modulator Assays
Selected GST2 inhibitors of General Formula (I) were screened in a PPARγ assay to determine their modulator effects.
(§1) The specific ligand binding to the receptor is defined as the difference between the total binding and the non-specific binding determined in the presence of an excess of unlabelled ligand. The results are expressed as a percent inhibition of control specific binding obtained in the presence of the test compounds.
(§2) In each experiment, the respective reference compound was tested concurrently with the test compounds in order to assess the assay suitability. It was tested at several concentrations (for IC50 value determination), and the data were compared with historical values.

The next data set concerns the target K+ATP channel (Rattus norvegicus, UniProt Q09429). As to the kind of experiment: KATP channel receptor binding assay ([3H]glibenclamide). Conditions: [3H]glibenclamide 0.1 nM, rat cerebral cortex; for inhibition at 10 µM: Table 1, 10 μM compound concentration, read-out: K^+ATP Channel (% Inhibition of Control Specific Binding); for K+ATP Channel (% Inhibition of Control Specific Binding): Table 3. The method, then: KATP Channel Mediated Binding Assay
The compounds of Comparative Examples I to XII and Compounds 59, 30, 22, 76 and 69 were tested for their effects in an in vitro receptor binding KATP channel assay.
as §1, §2

Data set [1] addresses T2, human Prostaglandin D Synthase (GST2) (Homo sapiens, UniProt O60760).
T2 construct: the open reading frame of human Prostaglandin D Synthase was amplified from cDNA; made in house; host or cells: E. coli TOP10F'
As to the kind of experiment: Homogeneous biochemical assay of human Prostaglandin D Synthase (GST2) based on its glutathion-S-transferase activity (GSH conjugation to monochlorobimane, fluorescence). The method in brief: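 N-His-tagged human PGD synthase from E. coli, assayed via its GST activity: GSH conjugation to monochlorobimane in 50 mM MES/KOH pH 6.1, 0.7 mM GSH, 2 mM MgCl2. Compounds at final picomolar to triple-digit micromolar concentrations.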

The nature of data set [2]: Mouse microsomal metabolism assay. The data set is classed as in vitro ADME. To be noted: liver microsomes; mouse hepatic microsomes, 37° C., phosphate buffer pH 7.4, NADPH regenerating system; read-out: Mouse t½. The procedure:
Selected GST2 Inhibitors from Formula I Assessed in Mouse Microsomal Metabolism Assay
Selected GST2 inhibitors of General Formula (I) were screened in a mouse hepatic microsome assay to determine microsomal metabolism.
Test Articles were prepared in 50% acetonitrile.
Mouse hepatic microsomes supplied by BD GenTest Inc or an equivalent reputable supplier.
Test Articles are added to incubation plates containing phosphate buffer pH 7.4 and microsomes at a suitable protein concentration. Incubation plates are placed on a shaking water bath at 37° C. for 5 minutes pre-incubation. An aliquot of the reaction mixture is taken and added to acetonitrile (3:1). This is designated time […]. NADPH regenerating system in phosphate buffer pH 7.4 is added to initiate reactions. Aliquots from the incubation wells are taken at a number of time points and added to acetonitrile. Control incubations contained no microsomes or compounds with known microsomal stabilities. Samples were subject to centrifugation to remove denatured protein and the supernatants were analysed by LCMS.
Half lives were calculated from the log vs time transformed data according to the following equation: […]
Where λ is the slope of the linear regression line under first order (Test Article concentration <Km) conditions.
For orientation: Liver microsomes are vesicles of endoplasmic reticulum, rich in cytochrome P450 enzymes.

Data set [3] relates to B6.V Lep^ob mice (ob/ob mice). Kind of data set: Pharmacological study: body weight and food intake of treated ob/ob mice. To be noted: male ob/ob mice, 120 mg/kg/day by oral gavage, 12 days of treatment, versus vehicle. The data set is classed as in vivo, mouse. The procedure:
FIG. 1 is a body weight curve graph which plots the body weight and food intake of mice over time. Some of the mice are given food only whereas some are given food together with Compound 22 below.
16 Male ob/ob mice were obtained from Charles River in Belgium at an approximate age of 6 weeks and with an approximate mean body weight of 35 g at the beginning of substance administration. Mice were housed 4 per cage at a temperature of 23° C.±1 and a day/night cycle of 14/10 hours (05:00-19:00-05:00), with ad libitum access to standard chow and tap water. Mice were allowed to adapt to these conditions for 8 days prior to the start of treatment. Animals were administered substance by oral gavage in the morning at 07:00, immediately after determining body weight and food consumption. In the evening substance was administered at 19:00. One group of 8 animals were administered vehicle, 0.3% methylcellulose in saline, and the second group of 8 animals were administered Compound 22 (120 mg/kg/day) suspended in the vehicle. Body weight and food consumption were recorded daily during 12 days of treatment and the results are presented in FIG. 1, which is a body weight curve graph. This illustrates a 7% reduced weight gain in Compound 22 administered ob/ob mice, despite unaltered food intake.

Setting [4] is: Table 1, read-out: GST2 IC50 Range.
Setting [5] is: Table 3, read-out: GST2 IC50 range.
Setting [6] is: given beside the compound name in Examples 1 to 167, read-out: Potency Range (GST2 IC50).

T2 sequence (O60760 whole entry): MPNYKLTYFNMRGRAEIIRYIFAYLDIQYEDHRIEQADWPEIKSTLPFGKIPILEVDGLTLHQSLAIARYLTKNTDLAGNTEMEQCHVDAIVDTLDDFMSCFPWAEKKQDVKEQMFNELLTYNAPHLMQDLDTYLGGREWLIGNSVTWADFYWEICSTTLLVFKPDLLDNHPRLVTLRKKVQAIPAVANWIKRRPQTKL
K+ATP channel, sequence (Q09429 whole entry): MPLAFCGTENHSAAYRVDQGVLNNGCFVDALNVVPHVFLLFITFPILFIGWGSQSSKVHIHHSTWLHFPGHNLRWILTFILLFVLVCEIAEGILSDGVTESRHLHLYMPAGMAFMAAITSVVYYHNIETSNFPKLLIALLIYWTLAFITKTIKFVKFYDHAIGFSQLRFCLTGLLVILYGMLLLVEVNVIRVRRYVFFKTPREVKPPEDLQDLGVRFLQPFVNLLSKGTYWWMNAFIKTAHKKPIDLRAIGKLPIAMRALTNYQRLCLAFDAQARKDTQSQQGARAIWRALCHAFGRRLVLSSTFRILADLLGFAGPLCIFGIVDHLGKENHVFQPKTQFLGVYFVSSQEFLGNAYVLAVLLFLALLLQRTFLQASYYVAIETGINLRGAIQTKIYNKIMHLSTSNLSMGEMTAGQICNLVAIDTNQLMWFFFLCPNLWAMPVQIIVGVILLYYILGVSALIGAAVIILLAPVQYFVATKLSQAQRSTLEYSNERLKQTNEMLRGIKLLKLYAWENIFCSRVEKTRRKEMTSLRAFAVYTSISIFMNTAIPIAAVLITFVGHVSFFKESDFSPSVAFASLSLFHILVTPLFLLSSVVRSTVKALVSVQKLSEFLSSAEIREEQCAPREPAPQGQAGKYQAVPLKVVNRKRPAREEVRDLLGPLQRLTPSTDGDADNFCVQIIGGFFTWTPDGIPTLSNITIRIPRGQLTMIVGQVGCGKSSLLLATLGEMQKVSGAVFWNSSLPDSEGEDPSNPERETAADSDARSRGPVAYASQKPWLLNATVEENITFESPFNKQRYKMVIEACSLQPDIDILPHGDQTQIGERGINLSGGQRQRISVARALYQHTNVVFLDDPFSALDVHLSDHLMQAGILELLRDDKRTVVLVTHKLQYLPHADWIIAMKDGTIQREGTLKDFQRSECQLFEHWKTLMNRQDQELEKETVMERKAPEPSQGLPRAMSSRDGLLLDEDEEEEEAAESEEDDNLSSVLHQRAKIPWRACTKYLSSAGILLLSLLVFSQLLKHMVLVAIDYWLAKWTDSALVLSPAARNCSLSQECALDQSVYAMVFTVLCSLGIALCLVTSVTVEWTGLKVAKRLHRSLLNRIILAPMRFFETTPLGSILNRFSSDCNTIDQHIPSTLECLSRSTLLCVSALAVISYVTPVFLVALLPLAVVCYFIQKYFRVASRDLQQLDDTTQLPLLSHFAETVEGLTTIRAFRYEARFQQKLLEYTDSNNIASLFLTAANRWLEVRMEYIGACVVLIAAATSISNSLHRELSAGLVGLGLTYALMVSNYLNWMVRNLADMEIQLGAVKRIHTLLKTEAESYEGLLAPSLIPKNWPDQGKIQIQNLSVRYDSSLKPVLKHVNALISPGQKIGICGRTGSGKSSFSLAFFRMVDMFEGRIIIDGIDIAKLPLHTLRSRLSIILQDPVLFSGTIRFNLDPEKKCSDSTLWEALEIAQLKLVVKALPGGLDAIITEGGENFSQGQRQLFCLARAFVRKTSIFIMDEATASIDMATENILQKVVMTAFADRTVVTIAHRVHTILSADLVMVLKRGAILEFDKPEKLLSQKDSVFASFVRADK
K+ATP channel, sequence (P70673 whole entry partner): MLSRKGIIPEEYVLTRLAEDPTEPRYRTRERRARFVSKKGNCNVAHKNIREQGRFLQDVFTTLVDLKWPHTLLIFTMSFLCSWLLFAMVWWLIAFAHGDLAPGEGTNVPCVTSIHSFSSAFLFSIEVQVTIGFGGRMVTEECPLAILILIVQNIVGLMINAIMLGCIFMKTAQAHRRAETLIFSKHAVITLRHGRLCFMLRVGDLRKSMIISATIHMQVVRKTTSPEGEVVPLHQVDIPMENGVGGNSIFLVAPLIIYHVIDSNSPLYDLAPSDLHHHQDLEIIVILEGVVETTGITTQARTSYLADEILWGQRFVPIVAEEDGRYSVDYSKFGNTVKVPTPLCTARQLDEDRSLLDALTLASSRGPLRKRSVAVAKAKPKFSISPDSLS

For orientation: inhibition means the change of the read-out against control, counted positive when it falls. One may read the IC50 as the concentration that inhibits the measured activity by half. With `O=C(Nc1ccc(C(F)(F)F)cc1)N1CCN(C(=O)c2cccc(F)n2)CC1` [Compound 22, 4-(6-Fluoro-pyridine-2-carbonyl)-piperazine-1-carboxylic acid (4-trifluoromethyl-phenyl)-amide], the “PPARγ (% Inhibition of Control Specific Binding)” value at PPARγ (h) stood at 1%. On K+ATP channel, the inhibition at 10 µM amounted to 1%. For the same compound, the “K+ATP Channel (% Inhibition of Control Specific Binding)” value at K+ATP channel came out at 14%. Besides, the IC50 in data set [1] (setting [4]), in data set [1] (setting [5]) and in data set [1] (setting [6]) was 101 to 1000 nM each time. In data set [2], the half-life was above 1 h. Moreover, the reduced weight gain in data set [3] stood at 7%.

In the case of `O=C(Nc1nc(-c2ccccc2)cs1)N1CCN(C(=O)c2cccc(F)c2)CC1` [Compound 69, 4-(3-Fluoro-benzoyl)-piperazine-1-carboxylic acid (4-phenyl-thiazol-2-yl)-amide], the “PPARγ (% Inhibition of Control Specific Binding)” value at PPARγ (h) was −22%. In addition, the inhibition at 10 µM on K+ATP channel is -22%. Also, the “K+ATP Channel (% Inhibition of Control Specific Binding)” value at K+ATP channel is −13%. The IC50 in data set [1] (setting [4]), in data set [1] (setting [5]) and in data set [1] (setting [6]) was 11 to 100 nM throughout.

Consider `Cn1cnnc1-c1cccc(NC(=O)N2CCN(C(=O)c3cccc(F)c3)CC2)c1` [Compound 76, 4-(3-Fluoro-benzoyl)-piperazine-1-carboxylic acid [3-(4-methyl-4H-[1,2,4]triazol-3-yl)-phenyl]-amide], for which the “PPARγ (% Inhibition of Control Specific Binding)” value on PPARγ (h) was found to be 20%. In addition, the inhibition at 10 µM at K+ATP channel was 20%. Further, on K+ATP channel, the “K+ATP Channel (% Inhibition of Control Specific Binding)” value was −2%. The IC50 in data set [1] (setting [4]) lay in the range of 11 to 100 nM; in data set [1] (setting [5]) it was 11 to 100 nM; in data set [1] (setting [6]) it was 101 to 1000 nM.
